Test results from US20120220567A1, “BENZO-FUSED OXAZEPINE COMPOUNDS AS STEAROYL-COENZYME A DELTA-9 DESATURASE INHIBITORS” (priority 2009, published 2012).

These compounds were tested against T1, SCD-1 (Homo sapiens, UniProt O00767) (assay: Stearoyl-CoA desaturase assay (HepG2 cell P2 pellet)). Settings: Table 1, compounds of formula (Ia); protein from HepG2 cell P2 pellet, 20 μM stearoyl-CoA, 15 min at 25° C.; read-out: Ave IC50.
T1 construct: 50 μg of protein from a HepG2 cell P2 pellet; endogenous in cells; host or cells: HepG2 cells (P2 pellet)
T1 sequence (O00767 1-359): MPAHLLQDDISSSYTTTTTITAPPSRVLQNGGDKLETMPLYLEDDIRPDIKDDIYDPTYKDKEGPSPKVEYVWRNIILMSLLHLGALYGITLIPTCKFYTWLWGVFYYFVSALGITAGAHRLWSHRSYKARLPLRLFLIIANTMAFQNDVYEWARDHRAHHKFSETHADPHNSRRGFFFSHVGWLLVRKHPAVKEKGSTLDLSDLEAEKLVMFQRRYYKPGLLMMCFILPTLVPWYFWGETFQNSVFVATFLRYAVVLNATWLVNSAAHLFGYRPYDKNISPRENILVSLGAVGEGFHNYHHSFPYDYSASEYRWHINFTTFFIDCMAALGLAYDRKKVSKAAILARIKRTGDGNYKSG
Type: biochemical
Experimental: Stearoyl-CoA desaturase assays were performed in according to Talamo and Bloch. […] Assays were run in triplicate in 100-μl volumes of 100 mM TrisHCl, pH 7.3, containing 20 μM stearoyl-CoA, 2 mM β-NADH, and 50 μg of protein from a HepG2 cell P2 pellet. Since SCD-1 is the only isoform of SCD expressed in these cells, the assay is specific for SCD-1 with these cells as the source of enzyme. Reaction mixtures were incubated fifteen minutes at 25° C. and reactions were then stopped with a volume of trichloroacetic acid giving a final concentration of 0.2%. After five minutes, a 90-μl volume was transferred to a Millipore Multiscreen HTS 96-well filtration plate (MSHVN4B50) containing 125 μl of 10% charcoal in each well, to which vacuum had been previously applied. Plates were shaken fifteen minutes and then filtered into a collection plate. Fifty-μI volumes of filtrate were transferred to another plate containing 150 μl of MicroScint 40 for counting on a TopCount scintillation counter.

Compared with `CCc1ccc(CN2CCC3(CCN(C(=O)[C@H](C)NC(C)=O)CC3)Oc3ccccc32)cc1` [Compound 3], `CCc1ccc(CN2CCC3(CCN(C(=O)CNC(=O)C(C)C)CC3)Oc3ccccc32)cc1` [Compound 6] is lower in IC50: over 10000 nM for the first, 500 to 10000 nM for the second. The second is the more potent here.

Compared with `COc1ccccc1CN1CCC2(CCN(C(=O)CNC(C)=O)CC2)Oc2ccccc21` [Compound 24], `CC(=O)NCC(=O)N1CCC2(CC1)CCN(Cc1ccccc1F)c1ccccc1O2` [Compound 19] is higher in IC50: 500 to 10000 nM for the first, over 10000 nM for the second. The first is the more potent here.

`CC(=O)NCC(=O)N1CCC2(CC1)CCN(Cc1cccc(OC(F)(F)F)c1)c1ccccc1O2` [Compound 36] and `CC(=O)NCC(=O)N1CCC2(CC1)CCN(Cc1cccc(F)c1)c1ccccc1O2` [Compound 29] fall in the same range of IC50: 500 to 10000 nM for the first, 500 to 10000 nM for the second.

`CC(=O)NCC(=O)N1CCC2(CC1)CCN(Cc1ccc(C#N)cc1)c1ccccc1O2` [Compound 23] and `CC(=O)NCC(=O)N1CCC2(CC1)CCN(Cc1ccc(OC(C)(C)C)cc1)c1ccccc1O2` [Compound 18] cannot be ordered by IC50: over 10000 nM for the first, over 10000 nM for the second.

`CC(=O)NCC(=O)N1CCC2(CC1)CCN(Cc1ccc(C(C)(C)C)cc1)c1cccc(F)c1O2` [Compound 46] and `CC(=O)NCC(=O)N1CCC2(CC1)CCN(Cc1cccc(Br)c1)c1ccccc1O2` [Compound 39] fall in the same range of IC50: 500 to 10000 nM for the first, 500 to 10000 nM for the second.

Compared with `CC(=O)NCC(=O)N1CCC2(CC1)CCN(Cc1ccc(C)s1)c1ccccc1O2` [Compound 20], `CCc1ccc(CN2CCC3(CCN(C(=O)CNC(=O)C[C@@H](C)O)CC3)Oc3ccccc32)cc1` [Compound 8] is lower in IC50: over 10000 nM for the first, 500 to 10000 nM for the second.

Same assay, conditions: Table 2, compounds of formula (Ib); protein from HepG2 cell P2 pellet, 20 μM stearoyl-CoA, 15 min at 25° C.; read-out: Ave IC50

First: CC(C)(C)OC(=O)CCNC(=O)c1cnc(N2CCC3(CC2)CCN(Cc2ccc(C(C)(C)C)cc2)c2ccccc2O3)s1 [Compound 125]
Second: CC(C)(C)c1ccc(CN2CCC3(CCN(c4ncc(C(=O)NCCC(=O)O)s4)CC3)Oc3ccccc32)cc1 [Compound 130]
The IC50 of the first is higher: 500 to 10000 nM for the first, 0.5 to 49 nM for the second.

Compared with `CCN(C)C(=O)c1cnc(N2CCC3(CC2)CCN(Cc2ccc(C(C)(C)C)cc2)c2ccccc2O3)s1` [Compound 66], `CC(C)(C)c1ccc(CN2CCC3(CCN(c4ncc(C(=O)NCCCO)s4)CC3)Oc3ccccc32)cc1` [Compound 134] is lower in IC50: 50 to 499 nM for the first, 0.5 to 49 nM for the second.

Compared with `CC(C)(C)c1ccc(CN2CCC3(CCN(c4ncc(C(N)=O)s4)CC3)Oc3c(F)cccc32)cc1` [Compound 76], `CC(C)(C)c1ccc(CN2CCC3(CCN(c4ncc(C(=O)NCCC(N)=O)s4)CC3)Oc3c(F)cccc32)cc1` [Compound 91] is higher in IC50: 0.5 to 49 nM for the first, 50 to 499 nM for the second.

Compared with `CC(C)(C)c1ccc(CN2CCC3(CCN(c4ncc(C(=O)NCCc5cccs5)s4)CC3)Oc3c(F)cccc32)cc1` [Compound 83], `CC(C)(C)c1ccc(CN2CCC3(CCN(c4ncc(C(=O)NCc5ccccn5)s4)CC3)Oc3c(F)cccc32)cc1` [Compound 106] is higher in IC50: 500 to 10000 nM for the first, over 10000 nM for the second. The first is the more potent here.

`Cc1nn(C)c(C)c1CNC(=O)c1cnc(N2CCC3(CC2)CCN(Cc2ccc(C(C)(C)C)cc2)c2cccc(F)c2O3)s1` [Compound 90] and `Cc1cc(CNC(=O)c2cnc(N3CCC4(CC3)CCN(Cc3ccc(C(C)(C)C)cc3)c3cccc(F)c3O4)s2)no1` [Compound 97] fall in the same range of IC50: 500 to 10000 nM for the first, 500 to 10000 nM for the second.

`O=C(O)c1cnc(N2CCC3(CC2)CCN(Cc2cccc(C(F)(F)F)c2)c2ccccc2O3)s1` [Compound 54, 2-(5-(3-(trifluoromethyl)benzyl)-4,5-dihydro-3H-spiro[benzo[b][1,4]oxazepine-2,4′-piperidine]-1′-yl)thiazole-5-carboxylic Acid] and `NC(=O)c1cnc(N2CCC3(CC2)CCN(Cc2cccc(C(F)(F)F)c2)c2ccccc2O3)s1` [Compound 52] fall in the same range of IC50: 0.5 to 49 nM for the first, 0.5 to 49 nM for the second.

`CC(C)(C)c1ccc(CN2CCC3(CCN(c4ncc(C(=O)NC[C@H](O)CO)s4)CC3)Oc3ccccc32)cc1` [Compound 126] and `C[C@H](O)CNC(=O)c1cnc(N2CCC3(CC2)CCN(Cc2ccc(C(C)(C)C)cc2)c2cccc(F)c2O3)s1` [Compound 110] fall in the same range of IC50: 0.5 to 49 nM for the first, 0.5 to 49 nM for the second.

First: C[S+]([O-])CCNC(=O)c1cnc(N2CCC3(CC2)CCN(Cc2ccc(C(C)(C)C)cc2)c2cccc(F)c2O3)s1 (stereo not drawn) [Compound 93]
Second: CC(C)(C)CCNC(=O)c1cnc(N2CCC3(CC2)CCN(Cc2ccc(C(C)(C)C)cc2)c2cccc(F)c2O3)s1 [Compound 122]
The IC50 of the first is lower: 50 to 499 nM for the first, over 10000 nM for the second. The first is the more potent here.

First: CC(C)(C)c1ccc(CN2CCC3(CCN(c4ncc(C(=O)NCC(F)(F)F)s4)CC3)Oc3c(F)cccc32)cc1 [Compound 98]
Second: CC(C)CNC(=O)c1cnc(N2CCC3(CC2)CCN(Cc2ccc(C(C)(C)C)cc2)c2cccc(F)c2O3)s1 [Compound 84]
The IC50 of the first is lower: 50 to 499 nM for the first, 500 to 10000 nM for the second. The first is the more potent here.

`CN(C)CCCNC(=O)c1cnc(N2CCC3(CC2)CCN(Cc2ccc(C(C)(C)C)cc2)c2cccc(F)c2O3)s1` [Compound 107] and `CC(C)(C)c1ccc(CN2CCC3(CCN(c4ncc(C(=O)NCCN5CCCC5=O)s4)CC3)Oc3c(F)cccc32)cc1` [Compound 81] fall in the same range of IC50: 500 to 10000 nM for the first, 500 to 10000 nM for the second.

`O=C(NC[C@H](O)CO)c1cnc(N2CCC3(CC2)CCN(Cc2cccc(C(F)(F)F)c2)c2cccc(F)c2O3)s1` [Compound 132] and `O=C(O)CCNC(=O)c1cnc(N2CCC3(CC2)CCN(Cc2cccc(C(F)(F)F)c2)c2cccc(F)c2O3)s1` [Compound 133] fall in the same range of IC50: 0.5 to 49 nM for the first, 0.5 to 49 nM for the second.

First: CC(C)(C)c1ccc(CN2CCC3(CCN(c4ncc(C(=O)NCc5ccccc5F)s4)CC3)Oc3c(F)cccc32)cc1 [Compound 87]
Second: CC(C)(C)c1ccc(CN2CCC3(CCN(c4ncc(C(=O)Nc5ccccc5)s4)CC3)Oc3ccccc32)cc1 [Compound 71]
The IC50 of the first is lower: 50 to 499 nM for the first, over 10000 nM for the second. The first is the more potent here.

Compared with `O=C(O)CCNC(=O)c1cnc(N2CCC3(CC2)CCN(Cc2cccc(C(F)(F)F)c2)c2ccccc2O3)s1` [Compound 129], `O=C(NCCC1CC1)c1cnc(N2CCC3(CC2)CCN(Cc2cccc(C(F)(F)F)c2)c2ccccc2O3)s1` [Compound 51] is higher in IC50: 0.5 to 49 nM for the first, 500 to 10000 nM for the second. The first is the more potent here.

With `CC(C)(C)c1ccc(CN2CCC3(CCN(c4ncc(-c5ccc(C#N)cc5)s4)CC3)Oc3ccccc32)cc1` [Compound 137] the IC50 was 500 to 10000 nM.

Same assay, conditions: Table 3, compounds of formula (Ic); protein from HepG2 cell P2 pellet, 20 μM stearoyl-CoA, 15 min at 25° C.; read-out: Ave IC50

First: CC(C)c1ccc(CN2CCC3(CCN(c4ccc(C(N)=O)nn4)CC3)Oc3ccccc32)cc1 [Compound 182]
Second: COC(=O)c1ccc(N2CCC3(CC2)CCN(Cc2ccc(C(C)(C)C)cc2)c2ccccc2O3)nn1 [Compound 139]
The IC50 of the first is lower: 0.5 to 49 nM for the first, 500 to 10000 nM for the second. The first is the more potent here.

`NC(=O)c1ccc(N2CCC3(CC2)CCN(Cc2ccc(Oc4ccccc4)cc2)c2ccccc2O3)nn1` [Compound 184] and `CC(C)Oc1ccc(CN2CCC3(CCN(c4ccc(C(=O)NCCC5CC5)nn4)CC3)Oc3ccccc32)cc1` [Compound 178] fall in the same range of IC50: 0.5 to 49 nM for the first, 0.5 to 49 nM for the second.

First: CCNC(=O)c1ccc(N2CCC3(CC2)CCN(Cc2cccc(C(F)(F)F)c2)c2ccccc2O3)nn1 [Compound 167]
Second: CCCCNC(=O)c1ccc(N2CCC3(CC2)CCN(Cc2cccc(C(F)(F)F)c2)c2ccccc2O3)nn1 [Compound 156]
The IC50 of the first is higher: 50 to 499 nM for the first, 0.5 to 49 nM for the second.

`COC(=O)c1ccc(N2CCC3(CC2)CCN(Cc2cccc(C(F)(F)F)c2)c2ccccc2O3)nn1` [Compound 170, methyl 6-(5-(3-(trifluoromethyl)benzyl)-4,5-dihydro-3H-spiro-[benzo[b][1,4]oxazepine-2,4′-piperidine]-1′-yl)pyridazine-3-carboxylate] and `O=C(NCCC1CC1)c1ccc(N2CCC3(CC2)CCN(Cc2cccc(C(F)(F)F)c2)c2ccccc2O3)nc1` [Compound 169] fall in the same range of IC50: 0.5 to 49 nM for the first, 0.5 to 49 nM for the second.

In the case of `O=C(NCCC1CC1)c1ccc(N2CCC3(CC2)CCN(Cc2cccc(C(F)(F)F)c2)c2cccc(F)c2O3)nn1` [Compound 175], the IC50 is reported as 0.5 to 49 nM.
